Measured values as given in patent US9834558B2, “Substituted bridged urea analogs as sirtuin modulators” (GLAXOSMITHKLINE LLC, priority 2013, dated 2017).
Like-named read-outs stand apart in the source and are kept apart here. One block for each compound: values may come before it.

Molecular target: T1, SIRT1 (Homo sapiens, UniProt Q96EB6)
T1 sequence (Q96EB6 1-747): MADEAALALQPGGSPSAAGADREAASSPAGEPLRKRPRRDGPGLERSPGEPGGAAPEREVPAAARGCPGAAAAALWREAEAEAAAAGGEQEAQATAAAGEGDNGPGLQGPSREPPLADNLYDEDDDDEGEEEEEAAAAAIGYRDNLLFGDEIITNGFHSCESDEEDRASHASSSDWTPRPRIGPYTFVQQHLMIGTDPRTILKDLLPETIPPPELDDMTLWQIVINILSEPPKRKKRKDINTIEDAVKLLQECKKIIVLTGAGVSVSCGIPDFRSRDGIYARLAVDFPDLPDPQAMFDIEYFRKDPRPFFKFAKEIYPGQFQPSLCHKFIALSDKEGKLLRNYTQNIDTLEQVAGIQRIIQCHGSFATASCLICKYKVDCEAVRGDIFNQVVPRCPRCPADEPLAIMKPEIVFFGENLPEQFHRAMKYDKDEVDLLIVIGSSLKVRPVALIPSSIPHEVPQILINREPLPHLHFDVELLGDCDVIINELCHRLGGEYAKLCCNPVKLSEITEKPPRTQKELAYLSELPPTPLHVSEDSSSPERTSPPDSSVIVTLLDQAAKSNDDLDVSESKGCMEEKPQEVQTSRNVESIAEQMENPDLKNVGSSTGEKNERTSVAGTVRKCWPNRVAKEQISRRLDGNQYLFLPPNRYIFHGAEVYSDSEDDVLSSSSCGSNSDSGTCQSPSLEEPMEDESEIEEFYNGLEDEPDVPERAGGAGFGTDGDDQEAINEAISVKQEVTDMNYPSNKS
Assay: Trp mass spectrometry assay of SIRT1 activation
Format: biochemical
Conditions: for TRP Activity (EC1.5): EC1.5 = concentration that results in 150% activation of SIRT1
Procedure, shortened: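 Activation read-out: mass-spec measurement of O-acetyl-ADP-ribose or deacetylated Trp peptide versus compound-free controls, giving EC1.5 and Percent Maximum Activation. Reactions ran 25 min at 25 °C, pH 7.5, with 120 μM βNAD+, 0.5 μM acetylated p53-derived peptide and 10 nM His-tagged SIRT1.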

[1] = Trp peptide assay, maximum activity relative to control (100%), read-out: TRP MAX RESP (percent maximum fold activation)
[2] = concentration giving 150% activation of SIRT1, Trp peptide substrate
[3] = Trp mass spectrometry assay, EC1.5 = concentration of test compound that results in 150% activation of SIRT1
[4] = Trp mass spectrometry assay, concentration of test compound giving 150% activation of SIRT1
[5] = Trp peptide substrate, concentration giving 150% activation of SIRT1

SMILES: O=C(NCc1ccccc1)N1c2nc(-c3cccc(C(F)(F)F)c3)ccc2N2CC[C@H]1C2 [Example 597]
- Tryp AVG EC1.5 (μM) [3]: B (B (EC1.5 1-25 μM))

SMILES: Cc1ccc(-c2cc(C)c3c(n2)N(C(=O)Nc2cccnc2)[C@H]2CCN3C2)cn1 [(9S)-3-methyl-5-(6-methylpyridin-3-yl)-N-(pyridin-3-yl)-1,6,8-triazatricyclo[7.2.1.0^{2,7}]dodeca-2,4,6-triene-8-carboxamide]
- TRP Activity (EC1.5) (Trp peptide assay): B (B (EC1.5 1-25 μM))
- Emax [1]: > 150%

SMILES: COc1cc(NC(=O)N2c3nc(-c4ccc(C)nc4)ccc3N3CCC[C@H]2C3)ncn1 [Example 478]
- Tryp AVG EC1.5 (μM) [3]: B (B (EC1.5 1-25 μM))

SMILES: COC(=O)N1CCCN(c2ccc3c(n2)N(C(=O)Nc2ccncn2)[C@H]2CCCN3C2)CC1 [Example 446]
- Tryp AVG EC1.5 (μM) [3]: B (B (EC1.5 1-25 μM))

SMILES: COc1cc(NC(=O)N2c3nc(-c4ccccc4C#N)ccc3N3CCC[C@H]2C3)ncn1 [Example 440]
- Tryp AVG EC1.5 (μM) [3]: C (C (EC1.5>25 μM))

SMILES: Cc1ccc(-c2ccc3c(n2)N(C(=O)Nc2cncc(C)n2)[C@H]2CCN3C2)cn1 [(9S)-N-(6-methylpyrazin-2-yl)-5-(6-methylpyridin-3-yl)-1,6,8-triazatricyclo[7.2.1.0 {2,7}]dodeca-2,4,6-triene-8-carboxamide]
- TRP Activity (EC1.5) (Trp peptide assay): B (B (EC1.5 1-25 μM))
- Emax [1]: > 150%

SMILES: O=C(Nc1cnccn1)N1c2nc(-c3cnc(C4CC4)c(C(F)(F)F)c3)ccc2N2CC[C@H]1C2 [(9S)-5-[6-cyclopropyl-5-(trifluoromethyl)pyridin-3-yl]-N-(pyrazin-2-yl)-1,6,8-triazatricyclo[7.2.1.0 {2,7}]dodeca-2,4,6-triene-8-carboxamide]
- TRP Activity (EC1.5) (Trp peptide assay): A (A (EC1.5<1 μM))
- Emax [1]: > 150%

SMILES: O=C(Nc1ccncc1)N1c2nc(-c3cccc(Cl)c3)ccc2N2CCC[C@H]1C2 [Example 409]
- Tryp AVG EC1.5 (μM) [4]: A (A (EC1.5<1 μM))

SMILES: Cc1ccc(-c2ccc(NC(=O)N3c4nc(-c5cccc(C(F)(F)F)c5)ccc4N4CC[C@H]3C4)cc2)o1 [Example 582]
- Tryp AVG EC1.5 (μM) [3]: B (B (EC1.5 1-25 μM))

SMILES: COc1cc(NC(=O)N2c3nc(-c4cccc(Cl)c4)ccc3N3C[C@@H](O)[C@H]2C3)ncn1 [Example 679]
- Tryp AVG EC1.5 (μM) [2]: B (B (EC1.5 1-25 μM))

SMILES: O=C(Nc1ccncn1)N1c2nc(-c3cccc(N4CCOCC4)c3)ccc2N2CCC[C@H]1C2 [Example 529]
- Tryp AVG EC1.5 (μM) [3]: B (B (EC1.5 1-25 μM))

SMILES: COc1nccnc1NC(=O)N1c2nc(-c3ccnc(C)c3)ccc2N2CC[C@H]1C2 [Example 501]
- Tryp AVG EC1.5 (μM) [3]: B (B (EC1.5 1-25 μM))

SMILES: Cc1ccc(-c2ccc3c(n2)N(C(=O)Nc2cncc(OC[C@@H](O)CO)n2)[C@H]2CCN3C2)cn1 [(9S)-N-{6-[(2S)-2,3-dihydroxypropoxy]pyrazin-2-yl}-5-(6-methylpyridin-3-yl)-1,6,8-triazatricyclo[7.2.1.0 {2,7}]dodeca-2(7),3,5-triene-8-carboxamide]
- TRP Activity (EC1.5) (Trp peptide assay): B (B (EC1.5 1-25 μM))
- Emax [1]: > 150%

SMILES: Cc1cc(-c2ccc3c(n2)N(C(=O)Nc2ncnc4[nH]nnc24)[C@H]2CCN3C2)ccn1 [(9S)-5-(2-methylpyridin-4-yl)-N-{3H-[1,2,3]triazolo[4,5-d]pyrimidin-7-yl}-1,6,8-triazatricyclo[7.2.1.0^{2,7}]dodeca-2,4,6-triene-8-carboxamide]
- TRP Activity (EC1.5) (Trp peptide assay): C (C (EC1.5>25 μM))
- Emax [1]: < 150%

SMILES: CN(C)c1cccc(-c2ccc3c(n2)N(C(=O)Nc2ccc(F)cn2)[C@H]2CCCN3C2)c1 [Example 384]
- Tryp AVG EC1.5 (μM) [4]: B (B (EC1.5 1-25 μM))

SMILES: CN1CCN(c2ccnc(NC(=O)N3c4nc(-c5cccc(C(F)(F)F)c5)ccc4N4CC[C@H]3C4)n2)CC1 [Example 742]
- Tryp AVG EC1.5 (μM) [2]: A (A (EC1.5<1 μM))

SMILES: O=C(Nc1ccncc1)N1c2nc(-c3cccc(C(F)(F)F)c3)ccc2N2CC[C@H]1C2 [Example 817]
- Tryp AVG EC1.5 (μM) [2]: A (A (EC1.5<1 μM))

SMILES: O=C(Nc1ccc(N2CCCCC2)cc1)N1c2nc(-c3cccc(C(F)(F)F)c3)ccc2N2CC[C@H]1C2 [Example 628]
- Tryp AVG EC1.5 (μM) [2]: B (B (EC1.5 1-25 μM))

SMILES: C#CCNc1nccc(NC(=O)N2c3nc(-c4ccc(C5(C(F)(F)F)N=N5)cc4)ccc3N3CC[C@H]2C3)n1 [Example 805]
- Tryp AVG EC1.5 (μM) [2]: B (B (EC1.5 1-25 μM))

The remaining lines, values ahead:

- TRP Activity (EC1.5) (Trp peptide assay): B (B (EC1.5 1-25 μM))
- Emax [1]: > 150%
SMILES: Cc1cc(-c2ccc3c(n2)N(C(=O)Nc2cnc4c(c2)OCCO4)[C@H]2CCN3C2)ccn1 [(9S)-N-{2H,3H-[1,4]dioxino[2,3-b]pyridin-7-yl}-5-(2-methylpyridin-4-yl)-1,6,8-triazatricyclo[7.2.1.0 {2,7}]dodeca-2,4,6-triene-8-carboxamide]

- Tryp AVG EC1.5 (μM) [2]: B (B (EC1.5 1-25 μM))
SMILES: COc1cc(NC(=O)N2c3nc(-c4cccc(C(F)(F)F)c4)ccc3N3C[C@@H](O)[C@H]2C3)nc(OC)n1 [Example 664]

- Tryp AVG EC1.5 (μM) [2]: A (A (EC1.5<1 μM))
SMILES: O=C(Nc1cccc(-c2cnco2)n1)N1c2nc(-c3cccc(Cl)c3)ccc2N2C[C@@H](O)[C@H]1C2 [Example 693]

- Tryp AVG EC1.5 (μM) [4]: A (A (EC1.5<1 μM))
SMILES: CS(=O)(=O)c1cncc(-c2ccc3c(n2)N(C(=O)Nc2cncc(F)c2)[C@H]2CCCN3C2)c1 [Example 377]

- Tryp AVG EC1.5 (μM) [2]: A (A (EC1.5<1 μM))
SMILES: NS(=O)(=O)c1ccc(NC(=O)N2c3nc(-c4cccc(C(F)(F)F)c4)ccc3N3CC[C@H]2C3)cc1 [Example 643]

- Tryp AVG EC1.5 (μM) [2]: B (B (EC1.5 1-25 μM))
SMILES: CC(C)(C)OC(=O)NCc1cccc(-c2ccc3c(n2)N(C(=O)Nc2ccncc2)[C@H]2CCCN3C2)c1 [Example 795]

- Tryp AVG EC1.5 (μM) [5]: C (C (EC1.5>25 μM))
SMILES: Cc1cccnc1NC(=O)N1c2nc(-c3cccc(Cl)c3)ccc2N2CC[C@H]1C2 [Example 106]

- Tryp AVG EC1.5 (μM) [3]: B (B (EC1.5 1-25 μM))
SMILES: COc1cc(NC(=O)N2c3nc(-c4cncc(F)c4)ccc3N3CCC2CC3)ncn1 [Example 579]

- Tryp AVG EC1.5 (μM) [4]: A (A (EC1.5<1 μM))
SMILES: O=C(Nc1ccccn1)N1c2nc(-c3cccc(CC(O)CO)c3)ccc2N2CC[C@H]1C2 (stereo partly drawn) [Example 354]

- Tryp AVG EC1.5 (μM) [3]: B (B (EC1.5 1-25 μM))
SMILES: O=C(NCCCN1CCOCC1)N1c2nc(-c3cccc(C(F)(F)F)c3)ccc2N2CC[C@H]1C2 [Example 612]

- Tryp AVG EC1.5 (μM) [5]: B (B (EC1.5 1-25 μM))
SMILES: COc1ccc(C)nc1NC(=O)N1c2nc(-c3cccc(C(F)(F)F)c3)ccc2N2CC[C@H]1C2 [Example 77]

- TRP Activity (EC1.5) (Trp peptide assay): C (C (EC1.5>25 μM))
- Emax [1]: < 150%
SMILES: Cc1ccc(-c2ccc3c(n2)N(C(=O)NCC(C)(C)C)[C@H]2CCN3C2)cn1 [(9S)-N-(2,2-dimethylpropyl)-5-(6-methylpyridin-3-yl)-1,6,8-triazatricyclo[7.2.1.0 {2,7}]dodeca-2(7),3,5-triene-8-carboxamide]

- Tryp AVG EC1.5 (μM) [3]: B (B (EC1.5 1-25 μM))
SMILES: Cc1nc(NC(=O)N2c3nc(-c4cccnc4)ccc3N3CCC[C@H]2C3)sc1C [Example 466]

- Tryp AVG EC1.5 (μM) [3]: A (A (EC1.5<1 μM))
SMILES: O=C(Nc1cnccn1)N1c2nc(-c3cccc(C(F)(F)F)c3)ccc2N2CCC1CC2 [Example 472]

- Tryp AVG EC1.5 (μM) [4]: A (A (EC1.5<1 μM))
SMILES: O=C(Nc1ccc(F)cn1)N1c2nc(-c3cncc(Cl)c3)ccc2N2CCC[C@H]1C2 [Example 401]

- Tryp AVG EC1.5 (μM) [3]: A (A (EC1.5<1 μM))
- Emax (Trp mass spectrometry assay, percent maximum fold activation of SIRT1, read-out: Tryp % Fold Act): > 150%
SMILES: O=C(O)c1cc(NC(=S)NCc2ccc(NC(=O)N3c4nc(-c5cccc(C(F)(F)F)c5)ccc4N4CC[C@H]3C4)cc2)ccc1-c1c2ccc(=O)cc-2oc2cc(O)ccc12 [Example 530]

- Tryp AVG EC1.5 (μM) [3]: B (B (EC1.5 1-25 μM))
SMILES: O=C(NCCCCc1ccccc1)N1c2nc(-c3cccc(C(F)(F)F)c3)ccc2N2CC[C@H]1C2 [Example 600]

- Tryp AVG EC1.5 (μM) [5]: B (B (EC1.5 1-25 μM))
SMILES: O=C(Nc1ccncn1)N1c2nc(C3CCCC(C(F)(F)F)C3)ccc2N2CC[C@H]1C2 (stereo partly drawn) [Example 98]

- TRP Activity (EC1.5) (Trp peptide assay): A (A (EC1.5<1 μM))
- Emax [1]: > 150%
SMILES: CCNC(=O)c1ccc2c(n1)N(C(=O)Nc1ccccn1)[C@H]1CCN2C1 [(9S)-5-N-ethyl-8-N-(pyridin-2-yl)-1,6,8-triazatricyclo[7.2.1.0 {2,7}]dodeca-2(7),3,5-triene-5,8-dicarboxamide]

- Tryp AVG EC1.5 (μM) [3]: C (C (EC1.5>25 μM))
SMILES: CN1CCCN(c2ccc3c(n2)N(C(=O)Nc2ccncn2)[C@H]2CCCN3C2)CC1 [Example 484]

- TRP Activity (EC1.5) (Trp peptide assay): A (A (EC1.5<1 μM))
- Emax [1]: > 150%
SMILES: Cc1cc(-c2ccc3c(n2)N(C(=O)Nc2cncc(C4CC4)n2)[C@H]2CCN3C2)ccn1 [(9S)-N-(6-cyclopropylpyrazin-2-yl)-5-(2-methylpyridin-4-yl)-1,6,8-triazatricyclo[7.2.1.0 {2,7}]dodeca-2(7),3,5-triene-8-carboxamide]

- Tryp AVG EC1.5 (μM) [3]: B (B (EC1.5 1-25 μM))
SMILES: O=C(NCCN1CCOCC1)N1c2nc(-c3cccc(C(F)(F)F)c3)ccc2N2CC[C@H]1C2 [Example 616]
